Laboratory results as given in patent US20210017206A1, “PYRIDINONE AND PYRIMIDINONE PHOSPHATES AND BORONATES USEFUL AS ANTIBACTERIAL AGENTS” (Pfizer Inc., priority 2018, published 2021).
In brackets after ≈: the same amount, converted by molar mass.

Columns and labels:
[1] = tested on: Acinetobacter baumannii/haemolyticus, multidrug-resistant clinical isolate (AB-3167); test: MIC determination (CLSI), AB-3167; type: cell-based; details: lower of duplicate values
Description: (§1) B) MIC determinations: The in vitro antibacterial activity of parent compounds of those described in the Examples was evaluated by minimum inhibitory concentration (MIC) testing according to Clinical and Laboratory Standards Institute (CLSI). See: Clinical and Laboratory Standards Institute. Methods for Dilution Antimicrobial Susceptibility Tests for Bacteria that Grow Aerobically; Approved Standard-Eighth Edition. CLSI document M7-A8 [ISBN 1-56238-689-1]. Clinical and Laboratory Standards Institute, 940 West Valley Road, Suite 1400, Wayne, Pa. 19087-1898 USA, 2006; also Clinical and Laboratory Standards Institute. Performance Standards for Antimicrobial Susceptibility Testing; Twentieth Informational Supplement. CLSI document M100-S20 [ISBN1-56238-716-2]. Clinical and Laboratory Standards Institute.
(§2) The MIC determination is a standard laboratory method for evaluating the antibacterial activity of a compound. The MIC represents the lowest drug concentration that inhibits visible growth of bacteria following overnight incubation. […] Typically, the drug concentration range is broken down into 2-fold increments (e.g. 0.06 μg/mL, 0.12 μg/mL. 0.25 μg/mL, 0.50 μg/mL, 1.0 μg/mL, etc.) and the various drug concentrations are all individually incubated overnight with approximately the same number of bacteria. The MIC is then determined by visually inspecting the drug effect at each concentration, and identifying the lowest drug concentration that has inhibited bacterial growth as compared to the drug free control. Typically, bacteria continue to grow at drug concentrations lower than the MIC and don't grow at concentrations at and above the MIC.
(§3) The MIC values described in Table 2 below were derived from assays wherein each test compound was evaluated in duplicate. In cases where the duplicate values varied by 0-2-fold, the lower of the two values was reported below. Generally speaking, if the duplicate values varied by more than 2-fold, the assay was considered non-valid and was repeated until the variation between duplicate runs was <2-fold. In line with the CLSI guidelines referred to above, both control organisms and reference compounds were utilized in each MIC assay to provide proper quality control. MIC values generated with these control organisms and reference compounds were required to fall within a defined range for the assay to be considered valid and be included herein. Those skilled in the art will recognize that MIC values can and do vary from experiment to experiment. […] While a single MIC is reported for each compound and each microorganism, the reader should not conclude that each compound was only tested once. Several of the compounds were subjected to multiple tests. The data reported in Table 2 is reflective of the compounds relative activity and different MICs may have been generated on these occasions in line with the guidelines described above.
(§4) The following bacterial strains were used in these MIC determinations:
2) Acinetobacter baumannii/haemolyticus: Multidrug-resistant clinical isolate labeled as AB-3167 in Table 2;

[2] = tested on: Pseudomonas aeruginosa UI-18, wild-type (PA-7); test: MIC determination (CLSI), PA-7; type: cell-based; details: lower of duplicate values
Description: as §1, §2, §3, §4
1) Pseudomonas aeruginosa UI-18: Wild-type, labeled as PA-7 in Table 2;

[3] = tested on: Escherichia coli EC-1: VOGEL, mouse virulent; test: MIC determination (CLSI), EC-1; type: cell-based; details: read-out: EC-1 MIC
Description: as §1, §2, §3, §4
3) Escherichia coli EC-1: VOGEL, mouse virulent labeled as EC-1 in Table 2;

[4] = biological target: T1, Pseudomonas aeruginosa LpxC enzyme (Pseudomonas aeruginosa, UniProt P47205); test: IC50 assay, LpxC enzyme from P. aeruginosa (PA LpxC enzyme IC50); type: biochemical; details: P. aeruginosa LpxC 0.1 nM, 25° C., 1 hour, pH 8.0
T1 construct: made in house; host or cells: E. coli
T1 sequence (P47205 whole entry): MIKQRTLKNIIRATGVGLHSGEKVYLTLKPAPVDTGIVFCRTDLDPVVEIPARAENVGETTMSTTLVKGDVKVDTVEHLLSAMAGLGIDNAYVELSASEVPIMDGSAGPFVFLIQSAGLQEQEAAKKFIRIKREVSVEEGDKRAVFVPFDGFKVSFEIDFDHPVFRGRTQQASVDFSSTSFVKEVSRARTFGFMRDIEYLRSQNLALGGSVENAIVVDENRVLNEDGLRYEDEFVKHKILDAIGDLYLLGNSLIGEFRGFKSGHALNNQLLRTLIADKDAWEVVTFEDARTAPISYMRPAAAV
Description: In order to assess the compounds biological activity, selected in vitro assays were conducted on selected compounds. One of the assays measured the compounds ability to disrupt the synthesis of lipopolysaccharide, LPS, which is a component of the outer membrane of Gram-negative bacteria. Disruption of this synthesis is lethal to the bacteria. The assay determined the compound's ability to inhibit LpxC, which is the first enzyme in the biosynthetic pathway for LPS (measured as IC50). Additionally, MICs (minimal inhibitory concentrations) were determined for several bacteria. The specific protocols are described below:
A) IC50 Assay, LpxC Enzyme from P. aeruginosa (Labeled as PA LpxC Enzyme IC50):
At the end of 1 hour, 5 ul of 1 N HCl was added to stop the enzyme reaction, the plates were centrifuged, and then processed with the BioTrove Rapidfire HTMS Mass Spectrometry System. A no-enzyme control was used in calculating the IC50 values from the percent conversion values.

Row | SMILES | MIC [1] [µg/mL] | MIC [2] [µg/mL] | MIC [3] [µg/mL] | IC50 [4] [pM]
1 | COc1ccc(-c2ccn(CC[C@](C)(C(=O)NO)S(C)(=O)=O)c(=O)c2)c(F)c1F [(2R)-4-[4-(2,3-difluoro-4-methoxyphenyl)-2-oxopyridin-1(2H)-yl]-N-hydroxy-2-methyl-2-(methylsulfonyl)butanamide] | > 64 | 1 (≈ 2.32 µM) | 0.015 (≈ 0.0348 µM) | 166
2 | C[C@@](CCn1ccc(-c2ccc(-c3nccs3)cc2)cc1=O)(C(=O)NO)S(C)(=O)=O [(2R)-N-hydroxy-2-methyl-2-(methylsulfonyl)-4-{2-oxo-4-[4-(1,3-thiazol-2-yl)phenyl]pyridin-1(2H)-yl}butanamide] | > 64 | 0.5 (≈ 1.12 µM) | 0.06 (≈ 0.134 µM) | 176
3 | C[C@@](CCn1cnc(-c2ccc(-n3nccn3)cc2)cc1=O)(C(=O)NO)S(C)(=O)=O [(2R)-N-hydroxy-2-methyl-2-(methylsulfonyl)-4-{6-oxo-4-[4-(2H-1,2,3-triazol-2-yl)phenyl]pyrimidin-1(6H)-yl}butanamide] | > 64 | 0.5 (≈ 1.16 µM) | 0.06 (≈ 0.139 µM) | 
4 | COc1cnn(-c2ccc(-c3ccn(CC[C@](C)(C(=O)NO)S(C)(=O)=O)c(=O)c3)cc2)n1 [(2R)-N-hydroxy-4-{4-[4-(4-methoxy-2H-1,2,3-triazol-2-yl)phenyl]-2-oxopyridin-1(2H)-yl}-2-methyl-2-(methylsulfonyl)butanamide] | > 64 | 0.5 (≈ 1.08 µM) | 0.03 (≈ 0.065 µM) | 125
5 | C[C@@](CCn1ccc(-c2ccc(-n3nccn3)cc2)cc1=O)(C(=O)NO)S(C)(=O)=O [(R)-4-(4-(4-(2H-1,2,3-Triazol-2-yl)phenyl)-2-oxopyridin-1(2H)-yl)-N-hydroxy-2-methyl-2-(methylsulfonyl)butanamide] | > 64 | 0.5 (≈ 1.16 µM) | 0.06 (≈ 0.139 µM) | 
